Measured values from US20210268030A1, “FIBROADIPOGENIC PROGENITOR-DERIVED EXOSOMES FOR REGENERATION OF DYSTROPHIC MUSCLES” (EXOFIX S.R.L., priority 2018, published 2021).

Key:
[1] = test system: MuSCs within single fibres; assay: Single muscle fibres incubated with FAP conditioned media or exosomes (Pax7, MyoD, EdU); type: cell-based, C57BL6J-WT mice
Method: Single fibers were isolated using Pasut (2013) and Moyle's protocol (2014) from tibialis anterior, extensor digitorum longus, gastrocnemius and soleus muscles of C57BL6J-WT mice and cultured in proliferating medium (GM1: DMEM+pyruvate+4.5 g/l glucose+glutamate, 10% horse serum (HS), 0.5% Chicken Embryo Extract) for 24 hours, then exposed for the next 24 hrs to GM1 conditioned media derived from culture of FAPs (MEDIA-FAPs) isolated from young mdx mouse treated for 15 days with vehicle (CTR) or mdx mice treated with TSA (TSA) or media isolated from FAPs CTR and TSA pre-treated with the GW4869 to inhibit exosome biogenesis. In a parallel, independent experiment, single fibers were exposed to exosomes (EXO-FAPs) purified from MEDIA-FAPs and added to GM1 for 24 hours.
In ex-vivo experiments FAP-derived Exosomes (10·g) isolated by TEIR were put in culture with MuSCs or with myofibers in the cell culture media.
To investigate this hypothesis, we evaluated the effect of FAP-derived exosomes from HDACi-treated or control-treated mdx mice on MuSCs within single fibres isolated from WT mice. Freshly isolated single muscle fibres from tibialis anterior, extensor digitorum longus, gastrocnemius and soleus of C57BL6J mice were incubated with FAP-derived exosomes or whole conditioned media, and their effect on MuSCs was evaluated by monitoring the expression of Pax7, MyoD and DNA synthesis (EdU incorporation). In this experimental setting, the uptake of FAP-derived exosomes by MuSCs from single fibers was first confirmed by staining of lipidic dye PKH-67 used on purified vesicles (FIG. 6B).

MuSCs [2] = assay: PKH-67 tracing of exosome transfer from FAPs to MuSCs in transwell co-culture; type: cell-based, mdx mice; conditions: PKH67-labelled FAPs exposed to GW4869
Method: To stain FAPs derived exosomes, FAP cells were incubated with the lipidic dye PKH-67 (#P7333, Sigma) according to manufacturer instructions prior to transwell co-culture with MuSCs.
To analyse the capacity of MuSCs to uptake FAP-derived exosomes, we performed a transwell co-culture in which the potential “source” of exosomes—FAPs—was […] prior to transwell co-culture with the “acceptor” cells—MuSCs. […] PKH-67 is incorporated into newly generated exosomes, and therefore traces their passage to acceptor cells.

MuSCs [3] = assay: Transwell co-culture of FAPs with MuSCs, myogenic differentiation (fusion index); type: cell-based, mdx mice; conditions: FAPs exposed to GW4869 (10 uM) before transwell co-culture
Method: MuSCs and FAP cells were co-cultured by using inserts with 1.0 μm porous membrane to avoid direct contact between populations.
Cell culture inserts with 1.0-·m pore (#353102, #353104, Falcon) and 6 or 24 -well culture plates (BD Bioscience) were used for transwell co-culture. Freshly sorted MuSCs were plated in the bottom of the plate, while FAP cells were plated on the upper insert.
To decrease FAP-exosomes release, GW4869 (10 uM, #D1692, Sigma) was added to FAPs culture 30′ before the co-culture setting with MuSCs. To wash away any residual trace of GW4869, FAPs media was refreshed right before co-culture.
For Drosha SiRNA treatments, in vivo TSA treated FAPs on transwell were transfected with commercially available Drosha siRNA using Dharmafect3.0 (Dharmacon) according to manufacturer instructions; after 6 hours FAPs were put in co-culture with MuSCs.
We began to determine the identity of the extracellular mediators of FAP's support to MuSCs in DMD muscles, by performing transwell co-cultures between FAPs isolated from 1.5 month old mdx mice and MuSCs isolated from age-matched mdx mice. In transwell cultures, cells are separated by a membrane of 1 μm pore size that prevents direct cell contact, yet allows reciprocal transfer of soluble mediators of functional interactions between co-cultured cells.

[4] = test system: animals affected by muscular dystrophy; conditions: in vivo; cited from earlier work
muscles of DMD patients = conditions: phase I/II clinical trial, after one year of treatment; cited from earlier work
preclinical model of DMD = conditions: Colussi et al. 2010; cited from earlier work
[5] = supernatant of FAPs from control-treated mdx mice pre-exposed to GW4869

## O=C(/C=C/c1ccc(/C=C/C(=O)Nc2ccc(C3=NCCN3)cc2)cc1)Nc1ccc(C2=NCCN2)cc1 [GW4869]
[1]; GW4869 treatment of FAPs from TSA-treated mdx mice
  ability of the whole supernatant to increase all MuSC populations as well as their proliferation: drastically reduced
[1]; [5]
  number of Pax7+/MyoD+ MuSCs with high DNA synthesis (Edu+): not altered
  number of quiescent (Pax7+MyoD−) and differentiation-committed (Pax7- MyoD+) MuSCs: drastic reduction
MuSCs [2]
  prevention of detection of the PKH-67 signal in MuSCs co-cultured with FAPs: more than 80%
MuSCs [3]
  FAP's ability to enhance MuSCs differentiation into multinucleated myotubes: abrogated

## CCN(CC)Cc1ccc2cc(COC(=O)Nc3ccc(C(=O)NO)cc3)ccc2c1 [Givinostat]
[4]
  activity in the treatment of animals affected by muscular dystrophy: active
Muscles of DMD patients
  histology of the muscles of DMD patients: positively affect

## Nc1ccccc1NC(=O)c1ccc(CNC(=O)OCc2cccnc2)cc1 [MS-275]
[4]
  activity in the treatment of animals affected by muscular dystrophy: active

## O=C(CCCCCCC(=O)Nc1ccccc1)NO [Vorinostat]
[4]
  activity in the treatment of animals affected by muscular dystrophy: active
Preclinical model of DMD
  dose response curve: bell-shaped
